Converted amounts (≈) assume the structure as drawn. Some results are limits rather than exact numbers.

Assay type in all cases: functional
One experiment relates to Haemophilus influenzae. The experiment in a line: In vitro antibacterial activity against ampicillin resistant Haemophilus influenzae 30063 (B-lactamase +).
The next experiment concerns Streptococcus pneumoniae. Description: In vitro antibacterial activity against penicillin sensitive Streptococcus pneumoniae UC 9912.
Experiment [1] concerns Staphylococcus aureus. The experiment in a line: In vitro antibacterial activity against methicillin resistant Staphylococcus aureus UC 12673 (MRSA).
The subject of experiment [2] is Staphylococcus aureus. The experiment in a line: In vitro antibacterial activity against methicillin susceptible Staphylococcus aureus UC 9213 (MSSA).
A further experiment deals with Enterococcus faecalis. Description: In vitro antibacterial activity against vancomycin resistant Enterococcus faecalis UC 9217 (VREA).
A further experiment concerns Mus musculus. Description: In vivo efficacy to protect the Staphylococcus aureus infected mouse and the activity was reported using Linezolid as a control with ED50 = 3.7.
The next experiment deals with Moraxella catarrhalis. Description: In vitro antibacterial activity against Moraxella catarrhalis 30607.
The subject of experiment [3] is Staphylococcus epidermidis. Description: In vitro antibacterial activity against methicillin resistant Staphylococcus epidermidis UC 12084.

For the molecule `CC(=O)NC[C@H]1CN(c2ccc(-c3nnc(COC(C)=O)s3)c(F)c2)C(=O)O1`, the MIC in the experiment with Haemophilus influenzae was 4 µg/mL (≈ 9.79 µM); against Streptococcus pneumoniae, less than 0.125 µg/mL; with Staphylococcus aureus [1], 1 µg/mL (≈ 2.45 µM); with Staphylococcus aureus [2], 1 µg/mL (≈ 2.45 µM); against Enterococcus faecalis it was 1 µg/mL (≈ 2.45 µM); with Moraxella catarrhalis, 2 µg/mL (≈ 4.9 µM). The MIC in experiment [3] came to 0.25 µg/mL (≈ 0.612 µM). This molecule also showed a 50% effective dose (ED50) in the experiment with Mus musculus of 18.5 mg/kg.

For orientation: ED50 means the midpoint of the dose-response relation. Higher therefore signals a need for a large dose.

The record behind these values is ChEMBL document CHEMBL1136455, “The synthesis and antibacterial activity of 1,3,4-thiadiazole phenyl oxazolidinone analogues” (Bioorg Med Chem Lett, 2003).
